A word on the IC50: it is the concentration that inhibits the measured activity by half.

Series [1] has as its target ATP-dependent translocase ABCB1 (Homo sapiens, UniProt P08183). Description: Inhibition of P-glycoprotein in human LCC6MDR cells assessed as reversal fold by measuring reduction in paclitaxel by measuring paclitaxel IC50 at 1 uM after 5 days by Cell Titer-Glo luminescence assay. In general terms: Cellular ATP, detected with luciferase, serves as a proxy for viable cell number.

Series [2] in a line: Inhibition of MRP1 in human 2008/MRP1 cells assessed as reversal of doxorubicin resistance by measuring doxorubicin IC50 at 1 uM after 5 days by Cell Titer-Glo luminescence assay.

Chain of ATP-dependent translocase ABCB1 (P08183 whole entry): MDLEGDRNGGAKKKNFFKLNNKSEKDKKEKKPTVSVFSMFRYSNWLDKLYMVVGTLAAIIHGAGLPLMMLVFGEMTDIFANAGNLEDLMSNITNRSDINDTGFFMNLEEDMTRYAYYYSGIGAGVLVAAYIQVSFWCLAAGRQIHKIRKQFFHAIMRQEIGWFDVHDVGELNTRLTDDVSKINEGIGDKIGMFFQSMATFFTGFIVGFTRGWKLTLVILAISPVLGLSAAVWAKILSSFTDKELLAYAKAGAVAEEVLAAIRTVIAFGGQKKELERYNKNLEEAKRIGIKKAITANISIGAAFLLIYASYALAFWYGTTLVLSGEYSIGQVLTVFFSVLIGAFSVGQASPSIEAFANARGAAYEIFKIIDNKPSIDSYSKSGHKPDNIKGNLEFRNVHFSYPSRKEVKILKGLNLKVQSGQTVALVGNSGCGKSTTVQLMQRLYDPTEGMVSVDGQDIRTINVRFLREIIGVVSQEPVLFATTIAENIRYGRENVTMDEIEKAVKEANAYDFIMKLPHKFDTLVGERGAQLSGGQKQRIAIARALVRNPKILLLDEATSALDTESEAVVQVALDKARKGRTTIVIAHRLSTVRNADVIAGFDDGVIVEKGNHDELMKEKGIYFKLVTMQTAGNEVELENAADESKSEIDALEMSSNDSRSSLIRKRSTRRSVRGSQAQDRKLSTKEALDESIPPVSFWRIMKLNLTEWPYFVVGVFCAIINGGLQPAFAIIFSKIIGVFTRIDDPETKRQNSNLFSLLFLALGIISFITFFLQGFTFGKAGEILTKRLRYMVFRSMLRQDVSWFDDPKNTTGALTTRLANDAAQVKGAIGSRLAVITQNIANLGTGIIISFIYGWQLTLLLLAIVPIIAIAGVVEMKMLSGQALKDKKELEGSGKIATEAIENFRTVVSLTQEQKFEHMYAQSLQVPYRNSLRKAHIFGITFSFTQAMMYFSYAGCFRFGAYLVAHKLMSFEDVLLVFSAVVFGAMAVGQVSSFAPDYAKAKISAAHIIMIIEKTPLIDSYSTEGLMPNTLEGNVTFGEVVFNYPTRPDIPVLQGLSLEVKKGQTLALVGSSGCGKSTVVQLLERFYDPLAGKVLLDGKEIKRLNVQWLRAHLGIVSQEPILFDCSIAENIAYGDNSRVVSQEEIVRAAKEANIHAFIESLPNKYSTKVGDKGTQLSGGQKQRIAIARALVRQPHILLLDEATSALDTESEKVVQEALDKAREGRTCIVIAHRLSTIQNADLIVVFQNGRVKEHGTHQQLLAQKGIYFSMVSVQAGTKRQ

With `COc1cc(OC)c2c(c1)O[C@H](c1ccc(OC)c(OC)c1)[C@@H](OC(=O)c1ccc(F)c(NC(=O)c3cc(OC)c(OC)c(OC)c3)c1)C2`, the “IC50” value in series [1] turned out to be 0.0018 µM; in series [2], 0.354 µM.
In the same order, the values of `COc1cc(OC)c2c(c1)O[C@H](c1ccc(OC)c(OC)c1)[C@H](OC(=O)c1ccc(F)c(NC(=O)c3cc(OC)c(OC)c(OC)c3)c1)C2` are 0.0022 µM and 0.341 µM.

The record behind these values is BindingDB's records for doi:10.1016/j.ejmech.2021.113795 (Hong Kong Polytechnic University, 2021).
